The text below walks through data of patent US8048900B2, “Use of 15-lipoxygenase inhibitors for treating obesity” (Genfit S.A., priority 2006, dated 2011).

In one assay the test system is 15-LO. The following applies: 15-LO inhibition, cited from earlier work.
Assay [1] has as its system human abdominal visceral PA. Description: aP2 marker expression during differentiation of human abdominal visceral pre-adipocytes (RT-PCR / RT-QPCR). It is filed as cell-based. As for the experimental part:
(§1) HWP from Promocell are maintained in PA growth medium (0.4% ECGS/H, 5% FCS, 10 ng/ml EGF, 1 μg/ml hydrocortisone, 50 ng/ml amphotericin B, 50 μg/ml gentamycin) until confluence. When cells reach confluence, they are differentiated for 3 days in PA differentiation medium (8 μg/ml d-biotin, 0.5 μg/ml recombinant human insulin, 400 ng/ml dexamethasone, 44 μg/ml IBMX, 9 ng/ml L-thyroxin, 3 μg/ml ciglitazone, 50 ng/ml amphotericin B, 50 ng/ml gentamycin), then cultured to the terminal differentiation stage in adipocyte nutritive medium (3% FCS, 8 μg/ml d-biotin, 0.5 μg/ml recombinant human insulin, 400 ng/ml dexamethasone, 50 ng/ml amphotericin B, 50 μg/ml gentamycin). PA from Cambrex are maintained in PA growth medium (10% FCS, 100 U/ml penicillin, 100 μg/ml streptomycin) until confluence, then the medium is replaced by differentiation medium (10% FCS, 10 μg/ml recombinant human insulin, 1 μM dexamethasone, 500 μM IBMX, 200 μM indomethacin, 100 U/ml penicillin, 100 μg/ml streptomycin) throughout the differentiation process. Extraction of RNA and Analysis of 15-LO-1 and aP2 Gene Expression by RT-PCR and RT-QPCR
Human abdominal visceral PA from several donors are differentiated as described in example 4. PD146176 diluted in DMSO is added when the PA reached confluence (D0) and is maintained in the medium during the differentiation of PA to adipocytes. DMSO at 0.1% final concentration is added to the culture medium as negative control.
aP2 (adipocyte lipid-binding protein), like adiponectin, is a marker of adipocyte differentiation. Total RNA is extracted from the cells at different times during differentiation (D3, D7) as described in example 3 and expression of the aP2 marker is analyzed by RT-PCR or RT-QPCR as described in examples 1 and 2. Relative expression is reported with reference to the day of confluence (D0) and normalized to cyclophilin expression.

For assay [2], the system named is human abdominal visceral PA. Description: Adiponectin secretion during differentiation of human abdominal visceral pre-adipocytes. It is filed as cell-based. The following applies: culture supernatant, D7 of differentiation, treated from D0, PA culture No. 3 passage 4. The protocol:
as §1, with “Extraction of RNA and Analysis of 15-LO-1 and aP2 Gene Expression by RT-PCR and RT-QPCR” left out
Adiponectin is a factor secreted by adipocytes and, like aP2, serves as a marker of adipocyte differentiation in our cultures. Adiponectin concentrations is determined in culture supernatants at different times during differentiation using the Quantikine human adiponectin/ACRP30 kit according to the supplier's instructions (R&D, Minneapolis, Minn., USA).

Assay [3] deals with 3T3-L1 cells. As to the kind of experiment: 3T3-L1 cell morphology during adipocyte differentiation. It is filed as cell-based, mouse. The settings on record: addition at D0, photographs during differentiation. The protocol:
(§2) The mouse PA 3T3-L1 cell line (ATCC) is maintained in DMEM (Dulbecco's Modified Eagle's minimal essential Medium) supplemented with 10% FCS, L-glutamine and a penicillin/streptomycin mixture. At confluence (D0), 3T3-L1 cells are differentiated by a two-day treatment with a mixture of dexamethasone (0.1 μM), isobutylmethylxanthine (0.25 mM) and insulin (0.4 μM). Cells are then maintained on insulin for another 14 days until differentiation is complete. Photographs are taken at different times after confluence in order to visually follow the differentiation process.
(§3) PD146176 is added to the 3T3-L1 cells when they reach confluence (D0) and is maintained throughout the differentiation process with replacement every other day at the same time as the insulin.

Assay [4] deals with 3T3-L1 cells. Description: Quantification of 3T3-L1 differentiation with AdipoRed. It is filed as cell-based, mouse. The following applies: addition at D0, starting from D3 of differentiation. The protocol:
as §2, §3
The gradual accumulation of intracellular droplets is also used as a functional marker of differentiation to adipocytes. To quantify this accumulation the 3T3-L1 cells are differentiated in 96-well microtiter plates. The plates are removed from the incubator on the day of the assay in order to reequilibrate to room temperature. The medium is removed, the cells carefully rinsed with 200 μl PBS, and 200 μl PBS are then added to each well followed by 5 μl AdipoRed reagent (Cambrex, Paris, France). The plates are mixed before measuring fluorescence on a fluorimeter at an excitation wavelength of 485 nm and an emission wavelength of 535 nm.

The test system of assay [5] is 3T3-L1 cells. As to the kind of experiment: Assay of intracellular triglycerides in 3T3-L1 cells. The assay is classed as cell-based, mouse. The protocol:
The mouse PA 3T3-L1 cell line (ATCC) is maintained in DMEM (Dulbecco's Modified Eagle's minimal essential Medium) supplemented with 10% FCS, L-glutamine and a penicillin/streptomycin mixture. At confluence (D0), 3T3-L1 cells are differentiated by a two-day treatment with a mixture of dexamethasone (0.1 μM), isobutylmethylxanthine (0.25 mM) and insulin (0.4 μM). Cells are then maintained on insulin for another 14 days until differentiation is complete. Photographs are taken at different times after confluence in order to visually follow the differentiation process. PD146176 is added to the 3T3-L1 cells when they reach confluence (D0) and is maintained throughout the differentiation process with replacement every other day at the same time as the insulin. To assay intracellular triglycerides, the 3T3-L1 cells are differentiated in 24-well microtiter plates. Cells are washed three times in PBS, then 500 μl of homogenization buffer (150 mM NaCl, Tris HCL pH 8, 0.1% Triton X-100) are added to each well. The cells are scraped into a tube and lysed by sonication for 10 seconds at 40 watts. The lysate is then filtered on a 0.2 μM millipore filter. The assay is carried out on 125 μl of the resulting lysate using the Triglyceride L-type kit (Wako). The assay is normalized for the protein content of the lysates.

Assay [6] concerns 3T3-L1 cells. Description: aP2 and LPL expression by RT-QPCR in 3T3-L1 cells during differentiation. The assay is classed as cell-based, mouse. The following applies: addition at D0, starting from D3 of differentiation. As for the experimental part:
as §2, §3
Total RNA is extracted at different times during differentiation as described in example 3 and expression of the aP2 and LPL (lipoprotein lipase) genes is analyzed by RT-QPCR according to the method described in example 2 (see Table 9).

Assay [7] concerns rat PA. Description: Rat primary PA morphology during adipocyte differentiation. The assay is classed as cell-based. The settings on record: 2.2 μM added at D0. The protocol: (§4) Cells from the VS fraction (isolated by the same method as that described in example 3) are seeded in 6-well plates at a density of 80,000 cells/cm^2 in medium 199 (Gibco) supplemented with 10% FCS and a penicillin/streptomycin mixture. After a 16-hour incubation to allow cell adherence, the wells are gently rinsed with PBS to remove any non-adherent material. The cells are grown to confluence (D0) at which time the medium 199 is removed and replaced by ITT medium (DME/Ham's F12, 15 mM NaHCO3, 15 mM Hepes, 33 μm biotin, 17 μM panthotenate, 0.5 μM human insulin, 0.2 nM triiodothyronine and antibiotics) without addition of serum. Cells are maintained in this medium to enable differentiation; the medium is changed every 2-3 days during the differentiation process.
Caffeic acid (2.2 μM) was added when the rat PA reach confluence (D0) and is maintained during the adipocyte differentiation process. At a concentration of 2.2 μM, caffeic acid is considered as a selective inhibitor of 15-LO (Shureiqi I, Chen D, Lee J J, Yang P, Newman R A, Brenner D E, Lotan R, Fischer S M and Lippman S M, 2000). DMSO is added to 0.1% final concentration to the culture medium as negative control.

Assay [8] deals with rat PA. Description: aP2 expression in rat primary PA during adipocyte differentiation. The settings on record: 2.2 μM added at D0, read at D3. It is filed as cell-based. The protocol: as §4
Caffeic acid (2.2 μM) was added when the rat PA reach confluence (D0) and is maintained during the adipocyte differentiation process. At a concentration of 2.2 μM, caffeic acid is considered as a selective inhibitor of 15-LO (Shureiqi I, Chen D, Lee J J, Yang P, Newman R A, Brenner D E, Lotan R, Fischer S M and Lippman S M, 2000). […]
Total RNA is extracted at different times during differentiation according to the method described in example 3 and aP2 and LPL gene expression is analyzed by quantitative RT-PCR as described in example 2 (see Table 10).

The mark [9] stands for this setting: value quoted from prior patents.

Like-named read-outs stand apart in the source and are kept apart here.

`COc1ccc(C(=O)Nc2ccc(Cl)c(Cl)c2)cc1N` [3-amino-N-(3,4-dichlorophenyl)-4-methoxy-benzamide]: the IC50 with 15-LO (setting [9]) was 0.01 µM.
Consider `c1ccc2c(c1)SCc1c-2[nH]c2ccccc12` [PD146176, 6,11-dihydro-5-thia-11-aza-benzo[a]-fluorene], for which the “expression of the aP2 marker” value in assay [1] (RT-PCR, D3 of differentiation, PA culture No. 1 passage 7, increasing concentrations added at D0) was “decreases the expression of the aP2 marker in a dose-dependent manner”. For the same compound, the “inhibition of 15-LO-1 expression” value is “almost completely” in assay [1] (RT-QPCR, D7, 3 μM from D0, PA culture No. 2) and 90% in assay [1] (RT-QPCR, D7, 3 μM from D0, PA culture No. 3). Also, in [1] (RT-QPCR, D7 of differentiation, 3 μM from D0, PA cultures No. 2 and No. 3, vs DMSO-treated or untreated cells), the aP2 expression entry was “strongly inhibited”. The adiponectin secretion result in assay [2] is on record as “sharply decreased”. The “lipid accumulation in the cells (morphology)” value in the assay on 3T3-L1 cells [3] is recorded as “dose-dependent inhibition of lipid accumulation”. In addition, the AdipoRed staining entry in the assay on 3T3-L1 cells [4] is “sharply decreases AdipoRed staining in a dose-dependent manner”. For the same compound, the “decrease in triglyceride accumulation relative to the control” value in the assay with 3T3-L1 cells [5] (10 μM, D10) came to 80%. Moreover, in the assay with 3T3-L1 cells [5] (addition at D0), the triglyceride accumulation entry is recorded as “dose-dependent decrease”. In addition, the “expression of LPL marker” value with 3T3-L1 cells [6] is reported as “dose-dependent decrease”. In addition, the “expression of aP2 marker” value in the assay with 3T3-L1 cells [6] was “dose-dependent decrease”. The concentration for half-maximal inhibition (IC50) in the assay on 15-LO (value quoted from prior literature/patents) is 0.5 to 0.8 µM; in the assay with 15-LO (setting [9]) it was 0.2 µM.
Take `COc1ccc(-c2cc3cc(F)c(F)cc3[nH]2)cc1NS(=O)(=O)NC(=O)OCC(C)C` [[[[5-(5,6-difluoro-1H-indol-2-yl)-2-methoxyphenyl]amino]sulfonyl]carabamic acid isobutyl ester]: the IC50 with 15-LO (setting [9]) is 0.014 µM.
On to `O=C(O)/C=C/c1ccc(O)c(O)c1` [caffeic acid], for which the “lipid accumulation in the cells (morphology)” value in the assay with rat PA [7] was “inhibition of lipid accumulation”. Further, in the assay with rat PA [8], the aP2 expression result is given as “decreases aP2 expression”.
